Measurements reported in US20220332700A1, “NOVEL APOPTOSIS SIGNAL-REGULATING KINASE 1 INHIBITORS” (MANKIND PHARMA LTD, priority 2019, published 2022).

Biological target: T1, recombinant ASK1 (Homo sapiens, UniProt Q99683)
T1 construct: purchased Carna Biosciences
Test: ASK1 Biochemical Assay (HTRF KinEASE-STK S3)
Conditions: ATP 100 μM; read-out: Biochemical Assay IC50
Experimental: ASK1 biochemical assay was standardized using recombinant ASK1 (Carna Biosciences), substrate and detection reagents from Cisbio HRTF KinEASE-STK S3 kit. Enzyme concentration, ATP, biotinylated STK substrate and STK antibodies were titrated for enzyme assay. Assay was carried out in ASK1 kinase buffer, 10 mM MOPS pH-7, 10 mM Mg-acetate, 1 mM DTT, 0.025% NP40, 1.5% glycerol and 0.05% BSA. DMSO was used as vehicle control with a final concentration of 1%. A 5 ng of ASK1 enzyme was incubated with compound for 1 hour at 23° C. on a shaker at 100rpm. ATP and biotin substrate was added at a final concentration of 100 μM and 1 μM and incubated for 3 hours at 23° C. on a shaker at 100rpm. […] Delta F ratios were calculated from data obtained at excitation (337 nm) and emission wavelengths (665 nm and 620-10 nm). Substrate blank values was considered as negative control. Values from negative control was substrated from vehicle control and compound treated wells. Enzyme inhibition by compounds were calculated from vehicle controls, which represent uninterrupted enzyme's activity.

T1 sequence (Q99683 654-971 limits assumed): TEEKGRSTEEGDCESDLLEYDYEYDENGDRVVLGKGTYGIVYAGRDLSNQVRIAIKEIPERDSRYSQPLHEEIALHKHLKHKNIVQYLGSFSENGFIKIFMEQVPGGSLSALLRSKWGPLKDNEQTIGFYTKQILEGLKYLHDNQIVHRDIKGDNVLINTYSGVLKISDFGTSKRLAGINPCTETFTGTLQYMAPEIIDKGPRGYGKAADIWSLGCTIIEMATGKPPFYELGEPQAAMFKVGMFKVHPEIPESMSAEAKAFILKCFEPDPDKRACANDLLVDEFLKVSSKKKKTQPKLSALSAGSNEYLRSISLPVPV

Question: Which IC50 does the source give for `CC(C)n1cnnc1-c1cccc(N2CCN(c3cc(-n4ccnc4)ncn3)C2=O)n1` [Example 1001, 1-(6-(1H-imidazol-1-yl)pyrimidin-4-yl)-3-(6-(4-isopropyl-4H-1,2,4-triazol-3-yl)pyridin-2-yl)imidazolidin-2-one] here?
Answer: 1300 nM

Question: How did the IC50 turn out when `CC(C)n1cnnc1-c1cccc(N2CCN(c3cc(-n4ccnc4)ccn3)C2=O)n1` [Example 1003, 1-(4-(1H-imidazol-1-yl)pyridin-2-yl)-3-(6-(4-isopropyl-4H-1,2,4-triazol-3-yl)pyridin-2-yl)imidazolidin-2-one] was run?
Answer: > 1000 nM

Question: How did the IC50 turn out when `CC(C)n1cnnc1-c1cccc(-n2ccn(-c3cc(-n4ccnc4)ncn3)c2=O)n1` [Example 1004, 1-(6-(1H-imidazol-1-yl)pyrimidin-4-yl)-3-(6-(4-isopropyl-4H-1,2,4-triazol-3-yl)pyridin-2-yl)-1H-imidazol-2(3H)-one] was run?
Answer: > 1000 nM

Question: How did the IC50 turn out when `CC(C)n1cnnc1-c1cccc(N2CCN(c3cccc(-n4cnc(C5CC5)c4)c3)C2=O)n1` [Example 1005, 1-(3-(4-cyclopropyl-1H-imidazol-1-yl)phenyl)-3-(6-(4-isopropyl-4H-1,2,4-triazol-3-yl)pyridin-2-yl)imidazolidin-2-one] was run?
Answer: < 1000 nM

Question: `CC(C)n1cnnc1-c1cccc(-n2ccn(-c3cccc(-n4ccnc4)c3)c2=O)n1` [Example 1006, 1-(3-(1H-imidazol-1-yl)phenyl)-3-(6-(4-isopropyl-4H-1,2,4-triazol-3-yl)pyridin-2-yl)-1H-imidazol-2(3H)-one] was tested. Which IC50 did it give?
Answer: < 1000 nM

Question: `CC(C)n1cnnc1-c1cccc(N2CCN(c3cccc(-n4ccnc4)c3F)C2=O)n1` [Example 1008, 1-(2-fluoro-3-(1H-imidazol-1-yl)phenyl)-3-(6-(4-isopropyl-4H-1,2,4-triazol-3-yl)pyridin-2-yl)imidazolidin-2-one] was tested. Which IC50 did it give?
Answer: > 1000 nM

Question: How did the IC50 turn out when `CC(C)n1cnnc1-c1cccc(N2CCN(c3cccc(S(C)(=O)=O)c3)C2=O)n1` [Example 1009, 1-(6-(4-isopropyl-4H-1,2,4-triazol-3-yl)pyridin-2-yl)-3-(3-(methylsulfonyl)phenyl)imidazolidin-2-one] was run?
Answer: 95 nM

Question: How did the IC50 turn out when `CC(C)n1cnnc1-c1cccc(N2CCN(c3cccc(-c4cnn(C)c4)c3)C2=O)n1` [Example 1012, 1-(6-(4-isopropyl-4H-1,2,4-triazol-3-yl)pyridin-2-yl)-3-(3-(1-methyl-1H-pyrazol-4-yl)phenyl)imidazolidin-2-one] was run?
Answer: < 1000 nM

Question: `CC(C)n1cnnc1-c1cccc(N2CCN(c3cccc(-c4ccc(C(N)=O)cc4)c3)C2=O)n1` [Example 1015, 3′-(3-(6-(4-isopropyl-4H-1,2,4-triazol-3-yl)pyridin-2-yl)-2-oxoimidazolidin-1-yl)-[1,1′-biphenyl]-4-carboxamide] was tested. Which IC50 did it give?
Answer: > 1000 nM

Question: Which IC50 does the source give for `CC(C)n1cnnc1-c1cccc(N2CCN(c3cccc(-c4ccc(C#N)cc4)c3)C2=O)n1` [Example 1016, 3′-(3-(6-(4-isopropyl-4H-1,2,4-triazol-3-yl)pyridin-2-yl)-2-oxoimidazolidin-1-yl)-[1,1′-biphenyl]-4-carbonitrile] here?
Answer: > 1000 nM

Question: How did the IC50 turn out when `CC(C)n1cnnc1-c1cccc(N2CCN(c3cccc(-c4ccc(C(F)(F)F)cc4)c3)C2=O)n1` [Example 1017, 1-(6-(4-isopropyl-4H-1,2,4-triazol-3-yl)pyridin-2-yl)-3-(4′-(trifluoromethyl)-[1,1′-biphenyl]-3-yl)imidazolidin-2-one] was run?
Answer: > 1000 nM

Question: With `COc1cc(C)c(-c2ccc(S(C)(=O)=O)cc2)cc1N1CCN(c2cccc(-c3nncn3C(C)C)n2)C1=O` [Example 1026, 1-(6-(4-isopropyl-4H-1,2,4-triazol-3-yl)pyridin-2-yl)-3-(4-methoxy-6-methyl-4′-(methylsulfonyl)-[1,1′-biphenyl]-3-yl)imidazolidin-2-one] as the compound, how does the IC50 read?
Answer: > 100 nM

Question: How did the IC50 turn out when `CC(C)n1cnnc1-c1cccc(N2CCN(S(C)(=O)=O)C2=O)n1` [Example 1028, 1-(6-(4-isopropyl-4H-1,2,4-triazol-3-yl)pyridin-2-yl)-3-(methylsulfonyl)imidazolidin-2-one] was run?
Answer: > 1000 nM

Question: Which IC50 does the source give for `CC(C)n1cnnc1-c1cccc(N2CCN(c3ccc(O)cc3)C2=O)n1` [Example 1030, 1-(4-hydroxyphenyl)-3-(6-(4-isopropyl-4H-1,2,4-triazol-3-yl)pyridin-2-yl)imidazolidin-2-one] here?
Answer: > 1000 nM

Question: How did the IC50 turn out when `COc1cc(C)c(S(C)(=O)=O)cc1N1CCN(c2cccc(-c3nncn3C(C)C)n2)C1=O` [Example 1031, 1-(6-(4-isopropyl-4H-1,2,4-triazol-3-yl)pyridin-2-yl)-3-(2-methoxy-4-methyl-5-(methylsulfonyl)phenyl)imidazolidin-2-one] was run?
Answer: > 1000 nM

Question: How did the IC50 turn out when `CC(C)n1cnnc1-c1cccc(N2CCN(c3ccc(C(F)(F)F)cc3)C2=O)n1` [Example 1033, 1-(4-(trifluoromethyl)phenyl)-3-(6-(4-isopropyl-4H-1,2,4-triazol-3-yl)pyridin-2-yl)imidazolidin-2-one] was run?
Answer: > 100 nM

Question: With `Cc1cc(S(C)(=O)=O)ccc1N1CCN(c2cccc(-c3nncn3C(C)C)n2)C1=O` [Example 1042, 1-(6-(4-isopropyl-4H-1,2,4-triazol-3-yl)pyridin-2-yl)-3-(2-methyl-4-(methylsulfonyl)phenyl)imidazolidin-2-one] as the compound, how does the IC50 read?
Answer: > 100 nM

Question: With `CC(C)n1cnnc1-c1cccc(N2CCN(c3ccc4nc(NC5CC5)sc4c3)C2=O)n1` [Example 1046, N-cyclopropyl-6-(3-(6-(4-isopropyl-4H-1,2,4-triazol-3-yl)pyridin-2-yl)-2-oxoimidazolidin-1-yl)benzo[d]thiazol-2-aminium 2,2,2-trifluoroacetate] as the compound, how does the IC50 read?
Answer: > 100 nM

Question: For `CC(C)n1cnnc1-c1cccc(N2CCN(c3ccc(S(C)(=O)=O)c(N4CCCC4)c3)C2=O)n1` [Example 1058, 1-(6-(4-isopropyl-4H-1,2,4-triazol-3-yl)pyridin-2-yl)-3-(4-(methylsulfonyl)-3-(pyrrolidin-1-yl)phenyl)imidazolidin-2-one], which IC50 is on record?
Answer: > 100 nM

Question: `CC(C)n1cnnc1-c1cccc(N2CCN(c3ccc(F)c(C4CC4)c3)C2=O)n1` [Example 1060, 1-(3-cyclopropyl-4-fluorophenyl)-3-(6-(4-isopropyl-4H-1,2,4-triazol-3-yl)pyridin-2-yl)imidazolidin-2-one] was tested. Which IC50 did it give?
Answer: < 100 nM

Question: How did the IC50 turn out when `CC(C)c1cc(N2CCN(c3cccc(-c4nncn4C(C)C)n3)C2=O)ccc1S(C)(=O)=O` [Example 1062, 1-(3-isopropyl-4-(methylsulfonyl)phenyl)-3-(6-(4-isopropyl-4H-1,2,4-triazol-3-yl)pyridin-2-yl)imidazolidin-2-one] was run?
Answer: > 1000 nM

Question: `CC(C)n1cnnc1-c1ccc(N2CCN(c3ccc(S(C)(=O)=O)cc3)C2=O)nc1` [Example 1064, 1-(5-(4-isopropyl-4H-1,2,4-triazol-3-yl)pyridin-2-yl)-3-(4-(methylsulfonyl)phenyl)imidazolidin-2-one] was tested. Which IC50 did it give?
Answer: > 100 nM

Question: Which IC50 does the source give for `CC(C)n1cnnc1-c1cccc(N2CCN(c3ccc(S(C)(=O)=O)cc3)C2=O)n1` [Example 1065, 1-(6-(4-isopropyl-4H-1,2,4-triazol-3-yl)pyridin-2-yl)-3-(4-(methylsulfonyl)phenyl)imidazolidin-2-one] here?
Answer: > 1000 nM

Question: Which IC50 does the source give for `CC(C)n1cnnc1-c1cccc(N2CCN(c3ccc(N4CCC(C)(C)CC4)cc3)C2=O)n1` [Example 1070, 1-(6-(4-isopropyl-4H-1,2,4-triazol-3-yl)pyridin-2-yl)-3-(4-(4,4-dimethylpiperidin-1-yl)phenyl)imidazolidin-2-one] here?
Answer: < 100 nM

Question: How did the IC50 turn out when `CC(C)n1cnnc1-c1cccc(N2CCN(c3ccc(N4CCC(O)CC4)nc3)C2=O)n1` [Example 1072, 1-(6-(4-hydroxypiperidin-1-yl)pyridin-3-yl)-3-(6-(4-isopropyl-4H-1,2,4-triazol-3-yl)pyridin-2-yl)imidazolidin-2-one] was run?
Answer: > 100 nM

Question: Which IC50 does the source give for `Cc1cc(N2CCN(c3cccc(-c4nncn4C(C)C)n3)C2=O)ccc1N1CCOCC1` [Example 1079, 1-(6-(4-isopropyl-4H-1,2,4-triazol-3-yl)pyridin-2-yl)-3-(3-methyl-4-morpholinophenyl)imidazolidin-2-one] here?
Answer: < 100 nM

Question: How did the IC50 turn out when `CC(C)n1cnnc1-c1cccc(N2CCN(c3ccc(N4[C@H](C)COC[C@H]4C)cc3)C2=O)n1` [Example 1086, 1-(6-(4-isopropyl-4H-1,2,4-triazol-3-yl)pyridin-2-yl)-3-(4-((3R,5R)-3,5-dimethylmorpholino)phenyl)imidazolidin-2-one] was run?
Answer: < 100 nM

Question: How did the IC50 turn out when `CC(C)n1cnnc1-c1cccc(N2CCN(c3ccc(N4CC(O)(C(C)C)C4)cc3)C2=O)n1` [Example 1089, 1-(4-(3-hydroxy-3-isopropylazetidin-1-yl)phenyl)-3-(6-(4-isopropyl-4H-1,2,4-triazol-3-yl)pyridin-2-yl)imidazolidin-2-one] was run?
Answer: < 100 nM

Question: `CC(C)n1cnnc1-c1cccc(N2CCN(C)C2=O)n1` [Example 1099, 1-(6-(4-isopropyl-4H-1,2,4-triazol-3-yl)pyridin-2-yl)-3-methylimidazolidin-2-one] was tested. Which IC50 did it give?
Answer: < 100 nM

Question: Which IC50 does the source give for `CC(C)n1cnnc1-c1cccc(N2CCN(c3ccc(N4CCCC4)cc3)C2=O)n1` [Example 1100, 1-(6-(4-isopropyl-4H-1,2,4-triazol-3-yl)pyridin-2-yl)-3-(4-(pyrrolidin-1-yl)phenyl)imidazolidin-2-one] here?
Answer: < 100 nM

Question: How did the IC50 turn out when `CC(C)n1cnnc1-c1cccc(N2CCN(c3cnc(S(C)(=O)=O)nc3)C2=O)n1` [Example 1102, 1-(6-(4-isopropyl-4H-1,2,4-triazol-3-yl)pyridin-2-yl)-3-(2-(methylsulfonyl)pyrimidin-5-yl)imidazolidin-2-one] was run?
Answer: < 100 nM

Question: For `CC(c1ccc(N2CCOCC2)cc1)N1CCN(c2cccc(-c3nncn3C(C)C)n2)C1=O` (centres unmarked) [Example 1111, 1-(6-(4-isopropyl-4H-1,2,4-triazol-3-yl)pyridin-2-yl)-3-(1-(4-morpholinophenyl)ethyl)imidazolidin-2-one], which IC50 is on record?
Answer: < 100 nM
